From patent US8748618B2, “Inhibitors of inv(16) leukemia” (University of Virginia Patent Foundation, priority 2009, dated 2014)

Key:
[1] = molecular target: CBFβ-SMMHC:RD (CBFβ-SMMHC binding to the Runt domain); test: FRET assay, inhibition of CBFβ-SMMHC binding to the Runt domain; settings: for IC50 FRET (CBFβ-SMMHC:RD, 20 nM both): 20 nM both proteins
Experimental: FRET assay. […] We fused the green fluorescent protein derivative Cerulean to the N-terminus of the Runt domain and the green fluorescent protein derivative Venus to the N-terminus of CBFβ-SMMHC (as well as to CBFβ (Gorczynski, Grembecka et al. 2007)). The ratio of the emission intensities at 525 nm and 474 nm, measured after excitation at 433 nm, was used as the readout in this assay. The dynamic range for the FRET assay was determined by adding a 30-fold excess of untagged CBFβ-SMMHC (or CBFβ in the case of CBFβ—Runt domain binding) to the assay and the associated change in the FRET ratio was defined as 100% inhibition.
As shown by Shoichet and co-workers (Seidler, McGovern et al. 2003), a primary source of false positives in any screen is micelle formation. […] A substantial loss of activity in the presence of detergent is a hallmark of inhibition by micelle formation and such compounds are thus identified as false positives. In addition, we are also incubating compound with protein and checking by mass spectroscopy to ensure that positive hits are not acting by covalent addition to either of the proteins.

CBFβ = CBFβ (Homo sapiens (Human), UniProt Q13951); test: NMR chemical shift perturbation with CBFβ; type: binding; settings: for NMR with CBFβ + 250 uM compound, CSP G 112: residue G 112; for NMR with CBFβ + 250 uM compound, CSP K 98: residue K 98; for Precipitation in the NMR sample: 250 uM compound with CBFβ
Text: Validation of binding of a small molecule inhibitor to its protein target is an essential step in developing potent inhibitors. This can be readily achieved using either NMR spectroscopy or X-ray crystallography. In the case of X-ray crystallography, this is achieved by co-crystallization of the protein with the ligand and determination of the structure. In the case of NMR spectroscopy, the structure of a compound-protein complex can also be determined. In addition, chemical shift perturbations of the protein NMR spectrum (typically 2D ^15N—^1H HSQC or ^13C—^1H HSQC) in the presence of compounds can both confirm binding to the target and localize the binding site on a protein (Pellecchia, Sem et al. 2002; Salvatella and Giralt 2003). The latter method is a quick and efficient method to confirm binding to the protein and to determine the binding site when appropriate labeled samples are available and the resonance assignments are known. Such data can also be used to dock the small molecule to the protein. Because the structure of CBFβ has been solved by NMR (Huang, Peng et al. 1999), resonance assignments are available and we have employed this approach as an additional screen to ensure the validity of the inhibitors we are developing and to determine the binding site (see below).

ME-1 cells [2] = test: MTT viability assay, growth of ME-1 cells; type: cell-based, human; settings: MTT, FIG. 4A
Text: (§1) We have tested several of the compounds we have synthesized for their effects on ME-1 cells, a leukemia cell line harboring the inv(16) (Yanagisawa, Horiuchi et al. 1991). […] AI-4-57 has also been tested against the Kasumi-1, Jurkat, and RS4; 11 leukemia cell lines (FIG. 4.B). […] We have also examined effects on apoptosis using flow cytometry to measure Annexin V/PI (propidium iodide) positivity. […] The selectivity for specific cell lines and the correlation of activity in the FRET assay with effects on inv(16) cells all support the hypothesis that the compounds are hitting the desired target.
The dimer with a 7 atom linker (AI-4-62) has been tested for effects on the growth of the ME-1 cell line (see FIG. 7), a leukemia cell line with the inv(16).

ME-1 cells [3] = test: Apoptosis by flow cytometry, Annexin V/PI positivity; type: cell-based, human; settings: FIG. 4C
Text: as §1

NCI 60 cell lines = settings: for 79% of the cell lines; cited from earlier work
[4] = ip injection; NCI Developmental Therapeutics website; cited from earlier work

Sequence of CBFβ (Q13951 1-141, species assumed): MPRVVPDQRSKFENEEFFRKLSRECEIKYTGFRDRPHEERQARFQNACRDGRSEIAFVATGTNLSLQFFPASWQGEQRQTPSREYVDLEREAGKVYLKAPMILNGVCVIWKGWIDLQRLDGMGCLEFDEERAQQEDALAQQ

IC50 FRET (CBFβ-SMMHC:RD, 20 nM both) ([1]; Table 1 monomers)	SMILES	NMR with CBFβ + 250 uM compound, CSP G 112 (CBFβ; 250 uM compound)	NMR with CBFβ + 250 uM compound, CSP K 98 (CBFβ; 250 uM compound)	NMR with CBFβ + 250 uM compound, CSP G 112/K 98 (in words) (CBFβ; 250 uM compound)	also measured
Interference with assay	c1ccc(-c2nc3cc(N4CCCCC4)ccc3[nH]2)nc1 [AI-10-82]	0.032 ppm	0.016 ppm	–	–
Interference with assay	c1ccc(-c2nc3cc(N4CCCC4)ccc3[nH]2)nc1 [AI-10-83]	0.087 ppm	0.039 ppm	–	NMR with CBFβ + 250 uM compound, CSP L 97 (CBFβ; 250 uM compound, residue L 97): 0.034 ppm
–	c1ccc(-c2nc3cc(-n4ccnc4)ccc3[nH]2)nc1 [AI-10-88]	–	–	No CSP	–
–	FC(F)(F)Oc1cc(-c2cccnc2)c2[nH]c(-c3ccccn3)nc2c1 [AI-10-96]	–	–	No CSP	–
Interference with assay	FC(F)(F)Oc1cc2nc(-c3ccccn3)[nH]c2cc1N1CCCC1 [AI-10-97]	0.012 ppm	0.006 ppm	–	–
–	c1cc(-c2nc3cc(N4CCCC4)ccc3[nH]2)ncc1OCCOCCOc1ccc(-c2nc3cc(N4CCCC4)ccc3[nH]2)nc1 [AI-10-98]	–	–	–	IC50 FRET (CBFβ-SMMHC:RD, 20 nM both) ([1]; Table 2 dimers): Interference with assay
Interference with assay	COc1ccc(-c2nc3cc(N4CCCC4)ccc3[nH]2)nc1 [AI-10-101]	–	–	–	–
–	Cc1ccc2[nH]c(-c3ccccn3)nc2c1C [LD-1-23]	–	–	No CSP	Precipitation in the NMR sample (CBFβ): some precipitation
–	CCOc1ccc2[nH]c(-c3ccccn3)nc2c1 [LD-1-29]	0.026 ppm	no change	–	Growth of ME-1 cells (ME-1 cells [2]): effective inhibition of growth; Apoptosis (AnnexinV/PI) (ME-1 cells [3]; 40 μM): substantial apoptosis; Percentage of apoptotic cells (AnnexinV/PI) (ME-1 cells [3]; 3 different concentrations): clear dose-dependent increase in the percentage of apoptotic cells
–	Fc1ccc2[nH]c(-c3ccccn3)nc2c1 [LD-1-31]	–	–	No CSP	Precipitation in the NMR sample (CBFβ): Strong precipitation
–	COc1c(F)cc2[nH]c(-c3ccccn3)nc2c1F [LD-1-39]	–	–	No CSP	–
–	COc1ccc(-c2nc3cc(OC)ccc3[nH]2)c(O)c1 [LD-1-73]	–	–	–	Δ110 [1]: Δ110 = 30%
–	COc1ccc2[nH]c(-c3cccc(C)n3)nc2c1 [LD-2-89]	–	–	–	Δ333 [1]: Δ333 = 17%
–	COc1ccnc(-c2nc3cc(OC)ccc3[nH]2)c1 [LD-2-101]	–	–	No CSP	–
–	COc1ccc2[nH]c(-c3ccccn3)nc2c1 [NCI-320656, reference compound]	0.039 ppm	0.026 ppm	–	GI50 (NCI 60 cell lines): ≥ 100 µM; Tolerated by mice [4]: up to 200 mg/kg/day

SMILES	IC50 FRET (CBFβ-SMMHC:RD, 20 nM both) ([1]; Table 1 monomers)	NMR with CBFβ + 250 uM compound, CSP G 112 (CBFβ; 250 uM compound)	NMR with CBFβ + 250 uM compound, CSP K 98 (CBFβ; 250 uM compound)	NMR with CBFβ + 250 uM compound, CSP G 112/K 98 (in words) (CBFβ; 250 uM compound)	also measured
CN(C)c1ccc2[nH]c(-c3ccccn3)nc2c1 [LD-2-63]	Interference with assay	0.037 ppm	0.023 ppm	–	–
